In EP1614683B1, “Indazole compounds and pharmaceutical compositions for inhibiting protein kinases, and methods for their use” (priority 1999, dated 2001):
Where two headings read alike, the source gives them in different places.

What was measured:
human FGF-R1 = human FGF-R1 (Homo sapiens, UniProt P11362, C488A/C584S/L457V); assay: FGF-R spectrophotometric assay; format: biochemical; details: for inhibition at 1 µM: compound concentration 1 µM, read-out: FGF-P* (% inhibition)
Experimental: The spectrophotometric assay was carried out as described above for VEGF-R2, except for the following changes in concentration: FGF-R = 50 nM, ATP = 2 mM, and poly(E4Y1) =15 mM.

[1] = system: human umbilical vein endothelial cells (HUVEC); assay: HUVEC proliferation assay (VEGF-stimulated, MTT); format: cell-based; details: Homo sapiens, HUVEC
[2] = biological target: T1, phosphorylated Tie-2 (aa 775-1122) (Homo sapiens, UniProt Q02763); assay: TIE-2 spectrophotometric assay; format: biochemical; details: for inhibition at 1 µM: Table 5, bold values spectrophotometric assay, non-bolded DELFIA assay (bold not visible here), read-out: % Inhibition @ 1 µM Tie2-P
T1 construct: 4 to 12 nM phosphorylated Tie-2 (aa 775-1122); made in house; host or cells: insect cells
T1 sequence (Q02763 775-1122): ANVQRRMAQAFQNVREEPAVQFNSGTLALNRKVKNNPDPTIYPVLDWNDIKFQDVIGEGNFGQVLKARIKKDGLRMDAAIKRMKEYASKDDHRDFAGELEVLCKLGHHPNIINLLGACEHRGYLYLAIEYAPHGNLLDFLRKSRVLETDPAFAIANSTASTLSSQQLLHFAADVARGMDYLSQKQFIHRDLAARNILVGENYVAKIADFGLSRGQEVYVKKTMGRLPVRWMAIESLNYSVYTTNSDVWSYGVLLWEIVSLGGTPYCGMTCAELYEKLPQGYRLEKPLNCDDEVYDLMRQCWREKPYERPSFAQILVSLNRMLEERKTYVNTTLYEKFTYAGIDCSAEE
Experimental: This construct also carries a R774M mutation, which serves as the initiating methionine residue in translation.
The kinase-catalyzed production of ADP from ATP that accompanies phosphoryl transfer to the random copolymer poly(Glu4 Tyr) was coupled to the oxidation of NADH through the activities of pyruvate kinase (PK) and lactate dehydrogenase (LDH). NADH conversion to NAD* was monitored by the decrease in absorbance at 340 nm (ε = 6.22 cm^-1mM^-1) using a Beckman DU650 spectrophotometer. Typical reaction solutions contained 1 mM phosphoenolpyruvate, 0.24 mM NADH, 40 mM MgCl2, 5 mM DTT, 2.9 mg/mL poly(Glu4Tyr), 0.5 mM ATP, 15 units/mL PK, 15 units/mL LDH in 100 mM HEPES, pH 7.5. […]

[3] = system: lung cancer cells (line MV522); assay: Cancer cell proliferation (MV522) assay; format: cell-based
Experimental: The protocol for assessing cellular proliferation in cancer cells is similar to that used for assessments in HUVEC cells. Two thousand lung cancer cells (line MV522, acquired from American Tissue Cultural Collection) were seeded in growth media (RPMI1640 medium supplemented with 2 mM glutamine and 10% FBS). Cells are allowed to attach for 1 day prior to addition of test agents and /or vehicles. Cells are treated simultaneously with the same test agents used in the HUVEC assay. Cellular proliferation is quantified by MTT dye reduction assay 72 hours after exposure to test agents. The total length of the assay is 4 days vs. 5 for HUVEC cells because MV522 cells are not exposed to starvation medium.

human CHK1 (FL-CHK1) = biological target: T2, human CHK1 (FL-CHK1) (Homo sapiens, UniProt O14757); assay: CHK1 coupled spectrophotometric assay; format: biochemical; details: Table 1; read-out: CHK -1* (Ki)
T2 construct: C-terminally His-tagged full-length human CHK1 (FL-CHK1) was expressed using the baculovirus/insect cell system; made in house; host or cells: baculovirus/insect cell system
T2 sequence (O14757 1-476): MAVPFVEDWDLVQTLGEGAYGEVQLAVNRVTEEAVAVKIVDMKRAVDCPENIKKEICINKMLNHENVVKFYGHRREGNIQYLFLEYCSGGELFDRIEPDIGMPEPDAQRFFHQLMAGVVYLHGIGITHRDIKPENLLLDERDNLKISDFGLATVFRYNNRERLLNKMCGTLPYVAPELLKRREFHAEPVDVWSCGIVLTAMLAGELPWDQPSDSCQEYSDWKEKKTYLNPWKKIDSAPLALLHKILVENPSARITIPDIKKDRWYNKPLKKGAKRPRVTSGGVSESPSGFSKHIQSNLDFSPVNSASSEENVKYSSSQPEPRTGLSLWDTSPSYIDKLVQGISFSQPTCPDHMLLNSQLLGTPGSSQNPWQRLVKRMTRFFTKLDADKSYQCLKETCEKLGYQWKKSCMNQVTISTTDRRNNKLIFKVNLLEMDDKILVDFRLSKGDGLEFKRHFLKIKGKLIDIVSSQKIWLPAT
From the text: CHK1 Construct for Assay: C-terminally His-tagged full-length human CHK1 (FL-CHK1) was expressed using the baculovirus/insect cell system. […] The protein was purified by conventional chromatographic techniques.
The production of ADP from ATP that accompanies phosphoryl transfer to the synthetic substrate peptide Syntide-2 ([…]) was coupled to oxidation of NADH using phosphoenolpyruvate (PEP) through the actions of pyruvate kinase (PK) and lactic dehydrogenase (LDH). The oxidation of NADH was monitored by following the decrease of absorbance at 340 nm (∈340 = 6.22 cm^-1 mM^-1) using a HP8452 spectrophotometer. […] Assays were initiated with 10 nM of FL-CHK1. Ki values were determined by measuring initial enzyme activity in the presence of varying concentrations of test compounds. The data were analyzed using Enzyme Kinetic and Kaleidagraph software.

LCK tyrosine kinase = LCK tyrosine kinase (Homo sapiens, UniProt P06239, C224D/P223M); assay: LCK spectrophotometric assay; format: biochemical; details: read-out: Lck-P* (% inhibition)
Sequence of LCK tyrosine kinase (P06239 223-509 P223M/C224D): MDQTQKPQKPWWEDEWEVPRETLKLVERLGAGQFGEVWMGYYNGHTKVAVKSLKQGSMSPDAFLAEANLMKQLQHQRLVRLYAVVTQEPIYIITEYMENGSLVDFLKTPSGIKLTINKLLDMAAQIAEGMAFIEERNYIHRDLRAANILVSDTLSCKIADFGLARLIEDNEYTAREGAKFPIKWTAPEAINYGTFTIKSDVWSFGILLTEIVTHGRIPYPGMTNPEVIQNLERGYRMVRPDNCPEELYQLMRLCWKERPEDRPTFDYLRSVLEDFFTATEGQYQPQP
Experimental: The spectrophotometric assay was carried out as described above for VEGF-R2, except for the following changes in concentration: LCK = 60 nM, MgCl2 = 0 mM, poly(E4Y1) = 20 mM.

in vitro = in vitro ADME, human; details: human liver microsomes, 5 µM test compound, 37 °C, 2 h; for remaining at 2 h, 5 µM: read-out: % remain (HLM, 2 h)
Summary of the method: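 HLM diluted to 5 mg/mL in 100 mM KPO4, preincubated 10 min at 37 °C with NADPH-regenerating system. Compound (5 µM final) incubated at 37 °C in triplicate, sampled at 0 and 2 h into ice-cold acetonitrile, then LC-MS analysis.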

[4] = system: VEGF dependent retinal neovascularization; assay: Neonatal rat model of retinopathy of prematurity; format: in vivo; details: Model ROP, intravitreal, vehicle PEG/water 70:30
in vivo = details: mouse, plasma, pH 2.3
[5] = biological target: unphosphorylated VEGF-R2Δ50 (Homo sapiens, UniProt P35968, DEL940-989/E990V); assay: biochemical; details: read-out: FLVK ** (% inhibition)
Sequence of unphosphorylated VEGF-R2Δ50 (P35968 with tags, fused parts or gaps DEL940-989/E990V limits assumed): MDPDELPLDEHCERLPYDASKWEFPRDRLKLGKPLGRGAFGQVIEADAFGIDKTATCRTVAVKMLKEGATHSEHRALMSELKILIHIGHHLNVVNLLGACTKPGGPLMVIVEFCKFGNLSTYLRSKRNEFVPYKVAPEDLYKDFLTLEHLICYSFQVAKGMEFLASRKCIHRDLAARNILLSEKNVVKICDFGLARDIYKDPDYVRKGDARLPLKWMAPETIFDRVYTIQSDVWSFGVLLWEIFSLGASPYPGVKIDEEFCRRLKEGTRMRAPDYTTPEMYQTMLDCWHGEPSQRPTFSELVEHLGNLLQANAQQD

[6] = vehicle PEG400:H2O pH 2.3 60:40
[7] = Table 1, + albumin, read-out: HUVEC + albumin IC50
[8] = MV522, Table 1, read-out: MV522 IC50
[9] = Table 1, compound concentration 1 µM

Sequence of human FGF-R1 (P11362 456-766 L457V/C488A/C584S): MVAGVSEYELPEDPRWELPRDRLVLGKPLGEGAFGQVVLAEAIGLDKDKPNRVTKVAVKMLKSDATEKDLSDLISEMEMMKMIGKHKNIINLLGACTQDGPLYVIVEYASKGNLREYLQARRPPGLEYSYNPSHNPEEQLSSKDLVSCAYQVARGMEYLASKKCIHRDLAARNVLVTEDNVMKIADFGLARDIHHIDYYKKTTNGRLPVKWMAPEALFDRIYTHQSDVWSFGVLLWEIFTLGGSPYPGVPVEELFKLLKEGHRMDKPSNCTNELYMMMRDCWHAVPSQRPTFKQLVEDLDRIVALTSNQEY

SMILES: COc1cc(-c2ccc3c(-c4cc5ccccc5[nH]4)n[nH]c3c2)ccc1O [2(d), 3-(1H-Indol-2-yl)-6-(3-methoxy-4-hydroxy-phenyl)-1H-indazole]
- Ki (human FGF-R1; Table 1, read-out: FGF-P* (Ki)): 68 nM
- IC50 ([1]; read-out: HUVEC IC50 (nM)): 450 nM
- inhibition at 10 µM ([2]; read-out: % Inhibition Tie2-P, compound tested at 10 µM): 90%
- IC50 ([3]; MV522, read-out: MV522 IC50 (µM)): 0.18 µM
- Ki (human CHK1 (FL-CHK1)): 91 nM
- inhibition at 1 µM (LCK tyrosine kinase): 43%

SMILES: CC(=O)Nc1cccc(Oc2ccc3c(/C=C/c4ccccc4)n[nH]c3c2)c1 [4(b), N-[3-(3-Styryl-1H-indazol-6-yloxy)-phenyl]-acetamide]
- Ki (human FGF-R1): 4.9 nM
- IC50 [1, 7]: 205 nM
- IC50 ([1]; Table 1, read-out: HUVEC IC50): 25 nM
- inhibition at 1 µM [2]: 29%
- IC50 [3, 8]: 3.2 µM
- remaining at 2 h, 5 µM (in vitro): 63%
- inhibition at 1 µM (LCK tyrosine kinase; [9]): 13%

SMILES: Cc1cnc(C(=O)Nc2cccc(Oc3ccc4c(/C=C/c5ccccc5)n[nH]c4c3)c2)s1 [5(a), 5-Methyl-thiazole-2-carboxylic acid {3-(3-styryl-1H-indazol-6-yloxy)-phenyl]-amide]
- IC50 ([1]; Table 1, read-out: HUVEC IC50): 12 nM
- inhibition at 1 µM [2]: 44%
- IC50 [3, 8]: 9.6 µM
- inhibition at 1 µM (LCK tyrosine kinase; [9]): 28%

SMILES: Cc1cccc(C(=O)Nc2cccc(Oc3ccc4c(/C=C/c5ccccc5)n[nH]c4c3)c2)c1 [5(b), 3-Methyl-N-[3-(3-styryl-1h-indazol-6-yloxy)-phenyl]-benzamide]
- IC50 [1, 7]: 33 nM
- IC50 ([1]; Table 1, read-out: HUVEC IC50): 3.7 nM
- IC50 [3, 8]: 8.5 µM
- % Inhibition ([4]; 5 mg/ml): 45%
- Initial Evaluation ([4]; 5 mg/ml): ++ (two pluses being judged to be approximately 25-75 % regression)
- inhibition at 1 µM (LCK tyrosine kinase; [9]): 78%

SMILES: Cc1cccc(C(=O)Nc2cccc(Oc3ccc4c(-c5cc6ccccc6[nH]5)n[nH]c4c3)c2)c1 [6(b), N-{3-[3-(2-Indolyl)-1H-indazol-6-yloxy]-phenyl}-3-methyl benzamide]
- inhibition at 1 µM (human FGF-R1; Table 1): 95%
- IC50 [1, 7]: 60 nM
- IC50 ([1]; Table 1, read-out: HUVEC IC50): 8 nM
- IC50 [3, 8]: 4 µM
- Initial Evaluation ([4]; 10 mg/ml): ++ (two pluses being judged to be approximately 25-75 % regression)
- inhibition at 1 µM (LCK tyrosine kinase; [9]): 81%

SMILES: CC(=O)Nc1cccc(N(C)c2ccc3c(/C=C/c4ccccc4)n[nH]c3c2)c1 [12(a), N-{3-[Methyl-(3-styryl-1H-indazol-6-yl)-amino]-phenyl]-acetamide]
- IC50 [1, 7]: 87 nM
- IC50 ([1]; Table 1, read-out: HUVEC IC50): 6 nM
- IC50 [3, 8]: 2.1 µM
- inhibition at 1 µM (LCK tyrosine kinase; [9]): 17%

SMILES: CN(c1cccc(NC(=O)c2ccccc2)c1)c1ccc2c(/C=C/c3ccc4c(c3)OCO4)n[nH]c2c1 [16(a), N-(3-{[3-(2-Benzo[1,3]dioxol-5-yl-vinyl)-1H-indazol-6-yl]-methyl-amino}-phenyl)-benzamide]
- inhibition at 1 µM (human FGF-R1; Table 1): 65%
- IC50 [1, 7]: 112 nM
- inhibition at 1 µM [2]: 10%
- IC50 [3, 8]: 8 µM
- remaining at 2 h, 5 µM (in vitro): 7%
- inhibition at 1 µM (LCK tyrosine kinase; [9]): 28%

SMILES: O=C(c1cccc(NC(=O)c2cccc3[nH]ccc23)c1)c1ccc2c(/C=C/c3ccccc3)n[nH]c2c1 [19(f), 6-[3-(indol-4-ylcarboxamido)benzoyl]-3-E-styryl-1H-indazole]
- inhibition at 1 µM (human FGF-R1; Table 1): 58%
- IC50 [1, 7]: 16 nM
- IC50 ([1]; Table 1, read-out: HUVEC IC50): 2.3 nM
- IC50 [3, 8]: 3.9 µM
- % remain (HLM, 2 h) (in vitro): 98%
- inhibition at 1 µM (LCK tyrosine kinase; [9]): 52%

SMILES: O=C(c1cccc(NC(=O)c2ccccn2)c1)c1ccc2c(/C=C/c3ccccc3)n[nH]c2c1 [19(k), 6-[3-(pyridin-2-ylcarboxamido)benzoyl)-3-E-styryl-1H-indazole]
- AUC (in vivo; ip, 25 mg/kg): 428 ng·h/mL
- AUC (in vivo; po, 50 mg/kg): 19 ng·h/mL
- inhibition at 1 µM (human FGF-R1; Table 1): 41%
- IC50 ([1]; Table 1, read-out: HUVEC IC50): 2.6 nM
- inhibition at 0.05 µM [5]: 100%
- IC50 [3, 8]: 4 µM
- T1/2 ([6]; IP, 25 mg/kg): 2.2 h
- Cmin (7 hr conc.) ([6]; PO, 50 mg/kg): 4 ng/mL
- T1/2 ([6]; PO, 50 mg/kg): 2.2 h
- % remain (HLM, 2 h) (in vitro): 58%
- inhibition at 1 µM (LCK tyrosine kinase; [9]): 37%

SMILES: O=C(c1cccc(NC(=O)c2cc(Cl)ccn2)c1)c1ccc2c(/C=C/c3ccccc3)n[nH]c2c1 [19(n), 6-[3-(4-chloropyridin-2-ylcarboxamido)benzoyl)-3-E-styryl-1H-indazole]
- inhibition at 1 µM (human FGF-R1; Table 1): 48%
- IC50 [1, 7]: 23 nM
- IC50 ([1]; Table 1, read-out: HUVEC IC50): 3.4 nM
- IC50 [3, 8]: 2.9 µM
- inhibition at 1 µM (LCK tyrosine kinase; [9]): 26%

SMILES: C=C(c1cccc(NC(=O)c2ccccc2)c1)c1ccc2c(/C=C/c3ccccc3)n[nH]c2c1 [22(b), 6-(1-(3-(Benzoylamido)phenyl)-vinyl)-3-styryl-1H-indazole]
- IC50 ([1]; Table 1, read-out: HUVEC IC50): 4.8 nM
- IC50 [3, 8]: 8.5 µM

SMILES: O=C(Nc1cccc(Cl)c1)c1ccccc1Sc1ccc2c(/C=C/c3ccccn3)n[nH]c2c1 [Reference Example 33(d), 6-[2-(3-chlorophenylcarbamoyl)phenylsulfanyl]-3-E-[2-(pyridin-2-yl)ethenyl]-1H-indazole]
- IC50 [1, 7]: > 300 nM
- IC50 [3, 8]: 8 µM
- % remain (HLM, 2 h) (in vitro): 22%
- inhibition at 1 µM (LCK tyrosine kinase; [9]): 55%
